Experimental findings from patent US20240165112A1, “THERAPY FOR THE TREATMENT OF CANCER” (Bristol-Myers Squibb Company, priority 2022, published 2024) are described below.

The nature of data set [1]: Plasma concentration of Compound 1 at the 400 mg dose. In kind it is in vivo. As to conditions: 400 mg dose in human.
Data set [2] concerns TNC, ACTA2, PAI-1 transcripts in normal human lung fibroblasts (NHLF). The experiment in a line: TGF-β-induced gene transcription, fibroblast activation markers (RT-PCR). The format is cell-based. As to the method:
Normal human lung fibroblasts (NHLF, black bars) were treated with 10 ng/mL TGF-β after 1 hour pre-incubation with a range of Compound 1 concentrations, and cells were lysed 24 hours later. Indicated gene transcripts were assessed by RT-PCR relative to GAPDH. Data were normalized to expression after TGF-β treatment in the presence of only DMSO. Data are presented as mean of 3 biological replicates, and error bars indicate standard deviation. The graphs are representative of at least 2 independent experiments. *P<0.05; ** P<0.01, ***P<0.001; ****P<0.0001 by student's t-test. Abbreviations: ACTA2, smooth muscle actin; CAF, cancer associated fibroblasts; DMSO, dimethyl sulfoxide; GAPDH, glyceraldehyde-3-phosphate dehydrogenase; NHLF, normal lung human fibroblasts; PAI-1, plasminogen activator inhibitor 1; RNA, ribonucleic acid; RT-PCR, reverse transcription polymerase chain reaction; TGF-β, transforming growth factor beta; TNC, tenascin C.
Cells were seeded (75,000 NHLF and lung CAF cells) into 12 well plates with RPMI+10% FBS and allowed to adhere overnight at 37° C., 5% CO2. After one day of serum starvation, cells were pre-treated for 1 hour with DMSO or Compound 1 at 30 μM, 10 μM, 3 μM, 1 μM, or 0.3 μM and then stimulated with 10 ng/mL TGF-β. The 24-hour Compound 1 treated samples were harvested for ribonucleic acid (RNA) extraction.
Cells were directly lysed in Qiagen™ Buffer RLT Plus with 1% 2-Mercaptoethanol added. Total RNA from tumor samples and cell lines was isolated using Qiagen™ AllPrep® DNA/RNA 96 Kit according to manufacturer's protocol. Isolated RNA was analyzed with NanoDrop™ ONE Spectrophotometer for concentration. The RNA integrity was also analyzed on Agilent TapeStation 4200.
Complimentary deoxyribonucleic acid (cDNA) was prepared by using Invitrogen™ SuperScript™ III First-Strand Synthesis SuperMix for qRT-PCR. Up to 1 μg of RNA was prepared according to manufacturer's protocol, using Applied Biosystems™ Veriti™ 96-well thermal cycler. The reverse transcription (RT) program used for cDNA synthesis: • 1. 25° C., 10 minutes • 2. 50° C., 30 minutes • 3. 85° C., 5 minutes • 4. Add E. Coli RNase H, 37° C., 20 minutes • 5. Hold at 4° C. Quantitative Reverse Transcription Polymerase Chain Reaction (qRT-PCR).
The cDNA was diluted 1:3 fold in nuclease-free water for quantitative polymerase chain reaction (qPCR) setup. Human and mouse TaqMan™ assays for targeted genes were ordered through Applied Biosystems™. TaqMan™ assay selection was based on manufacturer's recommendation. The qRT-PCR was set up using Applied Biosystems™ TaqMan™ Fast Advanced Master Mix according to manufacturer's protocol. The qRT-PCR was run on QuantStudio™ 12 Flex with fast run mode: • 1. 95° C., 20 seconds • 2. 95° C., 1 second • 3. 60° C., 20 seconds • 4. Repeat steps 2-3, 39 times
The qPCR data was analyzed, and all cycle threshold (Ct) values were normalized to glyceraldehyde-3-phosphate dehydrogenase (GAPDH) (ΔCt). Analysis was plotted and presented using GraphPad Prism (GraphPad, Version 8.4.1, San Diego, CA).
The levels of phospho-c-Jun in NHLF and non-small cell lung CAF in response to TGF-β in the presence of DMSO or varying concentrations of Compound 1 were summarized in FIG. 7. Cells were treated with DMSO or Compound 1 for 1 hour prior to treatment with 10 ng/mL TGF-β for an additional 2 hours. Phospho-c-Jun levels were determined by western blot analysis and were normalized to DMSO treated samples. […] The relative expression of fibroblast activation markers in NHLF and lung CAF in response to TGF-β in the presence of DMSO or varying concentrations of Compound 1 were summarized in FIGS. 8A-8C and FIGS. 9A-9C. Cells were treated with DMSO or Compound 1 for 2 hours prior to treatment with 10 ng/mL TGF-β. The RNA expression was assessed 24 hours after TGF-β treatment.

Data set [3] concerns CCL2 secretion by primary human macrophages. The experiment in a line: CCL2 secretion in primary human macrophages (ELISA). The format is cell-based. As to conditions: normalized to DMSO. As to the method: FIG. 11 illustrates the effect of Compound 1 Treatment on CCL2 Secretion in Primary Human Macrophages. Primary human monocytes were differentiated into macrophages and treated with varying doses of DMSO or Compound 1. The CCL2 levels were measured in the cell supernatant by ELISA 24 hours after drug treatment. The CCL2 secretion levels were normalized to the equivalent DMSO concentration. Data are plotted as the mean and standard deviation of 3 donors and representative of 2 independent experiments. *P<0.05; ** P<0.01, ***P<0.001; ****P<0.0001 by student's t-test. Abbreviations: CCL2, C—C motif chemokine ligand 2; DMSO, dimethyl sulfoxide; ELISA, enzyme-linked immunosorbent assay.
Peripheral blood mononuclear cells (PBMCs) were isolated from human blood using aseptic conditions. CD14+ monocytes were enriched from PBMC using Miltenyi Biotech kit (using CD14 microbeads). Fresh CD14+ monocytes were differentiated to macrophages using complete RPMI1640 medium with M-CSF recombinant human protein at the final concentration of 50 ng/mL. At Day 3-4, media containing M-CSF was added on monocytes/macrophages and incubated for 6-7 days in 5% CO2 incubator at 37° C. 10 mL 10 mM EDTA or Detachin was added to the culture dish containing macrophages, and let sit for 20-30 minutes, or until cells dissociate from the dish at room temperature. […]

[4] abbreviates: NHLF stimulated with TGFβ, 10 μM Compound 1.
[5] abbreviates: NHLF, 30 μM Compound 1, 10 ng/mL TGF-β, 24 hours.

As for `C[C@@H]1CC[C@@H](Nc2nc(NC(C)(C)C)ncc2C(N)=O)C[C@H]1O` [Compound 1, 2-(tert-butylamino)-4-((1R,3R,4R)-3-hydroxy-4-methylcyclohexylamino)-pyrimidine-5-carboxamide], the “plasma concentration at Cavg” value in data set [1] came out at 4 µM. Moreover, the Cmax (commonly the peak of the concentration-time curve) in data set [1] (plasma) worked out at 14 µM. In data set [2] (setting [4]), the “ACTA2 reduced relative to DMSO” value is listed as 4.1% and the “TNC reduced relative to DMSO” value is reported as 66%. In addition, in data set [2] (NHLF, 3 μM Compound 1, 10 ng/mL TGF-β, 24 hours), the “TNC induction, reduction from peak activation to baseline” value was 48%. For the same molecule, the “PAI-1 induction, reduction from peak activation to baseline” value in data set [2] (NHLF, 10 μM Compound 1, 10 ng/mL TGF-β, 24 hours) is reported as 20%. Besides, in data set [2] (setting [5]), the “ACTA2 induction, reduction from peak activation to baseline” value is listed as 95%; the “PAI-1 induction, reduction from peak activation relative to baseline” value worked out at 57%; the TNC expression entry is reported as “lower than samples that never received TGF-β”. Moreover, the “reduction in CCL2” value in data set [3] (7.4 μM Compound 1, supernatant) was determined as 36%. Moreover, the “reduction in CCL2” value in data set [3] (20 μM Compound 1, supernatant) came out at 43%.
